Results published in the NIST ThermoML archive (doi:10.1021/je800633a).

Experiments:
[1] = 81.5 kPa, Liquid; for viscosity: Capillary tube (Ostwald / Ubbelohde) method
[2] = refractive index (Na D-line) (dimensionless); conditions: 298.15 K; 101.33 kPa; Liquid; Standard Abbe refractometry
[3] = xn = mol fraction of the nth substance listed; conditions: 81.5 kPa, Liquid; for viscosity: Capillary tube (Ostwald / Ubbelohde) method
[4] = refractive index (Na D-line) (dimensionless); xn = mol fraction of the nth substance listed; conditions: 303.15 K, 81.5 kPa, Liquid

CC(O)CO (stereo not drawn) [1,2-propanediol]
[1]
Conditions | mass density [kg/m3] | viscosity [mPa·s]
298.15 K | 1032.61 | –
303.15 K | 1028.9 | 33.88
308.15 K | 1025.16 | –

Conditions | refractive index
[2] | 1.4323

CC(O)CO (stereo not drawn) [1,2-propanediol] + CCO
[3]
Conditions | mass density, 298.15 K [kg/m3] | mass density, 303.15 K [kg/m3] | mass density, 308.15 K [kg/m3] | viscosity, 303.15 K [mPa·s]
x2 = 0.0492 | 1023.64 | 1019.91 | 1016.16 | –
x2 = 0.0738 | – | – | – | 25.01
x2 = 0.122 | 1009.9 | 1006.14 | 1002.31 | –
x2 = 0.1285 | – | – | – | 20.47
x2 = 0.2072 | 993.05 | 989.22 | 985.36 | –
x2 = 0.2099 | – | – | – | 15.2
x2 = 0.2706 | 979.89 | 976.03 | 972.12 | –
x2 = 0.2725 | – | – | – | 12.14
x2 = 0.3633 | 959.86 | 955.92 | 951.97 | –
x2 = 0.3701 | – | – | – | 8.55
x2 = 0.4389 | – | – | – | 6.68
x2 = 0.4478 | 940.7 | 936.73 | 932.7 | –
x2 = 0.5193 | – | – | – | 5.03
x2 = 0.5261 | 921.85 | 917.81 | 913.76 | –
x2 = 0.5871 | – | – | – | 3.98
x2 = 0.6103 | 900.63 | 896.55 | 892.41 | –
x2 = 0.677 | 882.99 | 878.84 | 874.69 | –
x2 = 0.678 | – | – | – | 2.9
x2 = 0.7554 | – | – | – | 2.23
x2 = 0.7613 | 859.54 | 855.37 | 851.13 | –
x2 = 0.8185 | – | – | – | 1.8
x2 = 0.8332 | 838.49 | 834.25 | 829.99 | –
x2 = 0.9171 | – | – | – | 1.29
x2 = 0.9232 | 810.57 | 806.3 | 801.98 | –

[4]
Conditions | refractive index
x2 = 0.0738 | 1.426
x2 = 0.1285 | 1.4233
x2 = 0.2099 | 1.4187
x2 = 0.2725 | 1.4153
x2 = 0.3701 | 1.4093
x2 = 0.4389 | 1.4052
x2 = 0.5193 | 1.3998
x2 = 0.5871 | 1.3946
x2 = 0.678 | 1.3876
x2 = 0.7554 | 1.3817
x2 = 0.8185 | 1.3765
x2 = 0.9171 | 1.3672

CC(O)CO (stereo not drawn) [1,2-propanediol] + CO
[3]
Conditions | mass density, 298.15 K [kg/m3] | mass density, 303.15 K [kg/m3] | mass density, 308.15 K [kg/m3] | viscosity, 303.15 K [mPa·s]
x2 = 0 | 1032.61 | 1028.9 | 1025.16 | –
x2 = 0.0533 | 1026.26 | 1022.52 | 1018.75 | –
x2 = 0.0688 | – | – | – | 25.51
x2 = 0.1319 | 1016.21 | 1012.45 | 1008.64 | –
x2 = 0.1545 | – | – | – | 18.49
x2 = 0.2246 | 1003.13 | 999.31 | 995.47 | –
x2 = 0.2606 | – | – | – | 12.31
x2 = 0.282 | 994.24 | 990.39 | 986.48 | –
x2 = 0.3086 | – | – | – | 10.21
x2 = 0.3666 | – | – | – | 8.11
x2 = 0.3841 | 976.76 | 972.84 | 968.91 | –
x2 = 0.4494 | – | – | – | 5.81
x2 = 0.4496 | 964.21 | 960.26 | 956.25 | –
x2 = 0.51 | – | – | – | 4.54
x2 = 0.53 | 947.16 | 943.12 | 939.07 | –
x2 = 0.6083 | 928.51 | 924.41 | 920.25 | –
x2 = 0.6098 | – | – | – | 2.99
x2 = 0.6811 | – | – | – | 2.21
x2 = 0.7006 | 903.39 | 899.17 | 894.96 | –
x2 = 0.7601 | 884.96 | 880.67 | 876.35 | –
x2 = 0.7687 | – | – | – | 1.51
x2 = 0.8363 | – | – | – | 1.11
x2 = 0.8454 | 855.03 | 850.61 | 846.16 | –
x2 = 0.9133 | 827.35 | 823.02 | 818.45 | –
x2 = 0.9225 | – | – | – | 0.75

[4]
Conditions | refractive index
x2 = 0.0688 | 1.4262
x2 = 0.1545 | 1.422
x2 = 0.2606 | 1.4155
x2 = 0.3086 | 1.4129
x2 = 0.3666 | 1.4096
x2 = 0.4494 | 1.4029
x2 = 0.51 | 1.3983
x2 = 0.6098 | 1.3883
x2 = 0.6811 | 1.3783
x2 = 0.7687 | 1.3665
x2 = 0.8363 | 1.3571
x2 = 0.9225 | 1.3404

CCO [ethanol]
[1]
Conditions | mass density [kg/m3] | viscosity [mPa·s]
298.15 K | 785.18 | –
303.15 K | 780.87 | 0.994
308.15 K | 776.52 | –

Conditions | refractive index
[2] | 1.3595

CCO [ethanol] + CC(O)CO
[3], x1 = 1
Conditions | mass density [kg/m3]
298.15 K | 785.18
303.15 K | 780.87
308.15 K | 776.52

CO [methanol]
[1]
Conditions | mass density [kg/m3] | viscosity [mPa·s]
298.15 K | 786.57 | –
303.15 K | 781.85 | 0.525
308.15 K | 777.1 | –

Conditions | refractive index
[2] | 1.327

CO [methanol] + CC(O)CO
[3], x1 = 1
Conditions | mass density [kg/m3]
298.15 K | 786.57
303.15 K | 781.85
308.15 K | 777.1

CO [methanol] + CCO
[3], 303.15 K
Conditions | viscosity [mPa·s]
x1 = 0.0417 | 0.968
x1 = 0.1476 | 0.906
x1 = 0.2214 | 0.865
x1 = 0.2952 | 0.828
x1 = 0.3644 | 0.793
x1 = 0.4488 | 0.753
x1 = 0.529 | 0.717
x1 = 0.5995 | 0.685
x1 = 0.6859 | 0.648
x1 = 0.7442 | 0.624
x1 = 0.832 | 0.588
x1 = 0.9166 | 0.556

[4]
Conditions | refractive index
x1 = 0.0417 | 1.3567
x1 = 0.1476 | 1.3541
x1 = 0.2214 | 1.3522
x1 = 0.2952 | 1.3502
x1 = 0.3644 | 1.3485
x1 = 0.4488 | 1.3462
x1 = 0.529 | 1.3437
x1 = 0.5995 | 1.3415
x1 = 0.6859 | 1.3385
x1 = 0.7442 | 1.3363
x1 = 0.832 | 1.3328
x1 = 0.9166 | 1.3286
